From the NIST ThermoML archive (doi:10.1016/j.jct.2006.05.008)
Numbers after ± are expanded uncertainties.

Assay: molar heat capacity at constant pressure
Details: 101.33 kPa, Small (less than 1 g) adiabatic calorimetry

CCCCn1cc[n+](C)c1.[Br-] [1-butyl-3-methylimidazolium bromide]
Details | molar heat capacity at constant pressure [J/K/mol]
5 K, Crystal | 0.594 ± 0.036
5.112 K, Crystal | 0.6398 ± 0.033
5.416 K, Glass | 1.391 ± 0.048
5.455 K, Crystal | 0.7976 ± 0.035
5.698 K, Glass | 1.608 ± 0.044
5.764 K, Crystal | 0.9598 ± 0.039
6.014 K, Glass | 1.871 ± 0.055
6.078 K, Crystal | 1.144 ± 0.042
6.368 K, Glass | 2.187 ± 0.061
6.428 K, Crystal | 1.37 ± 0.046
6.758 K, Glass | 2.559 ± 0.068
6.809 K, Crystal | 1.648 ± 0.044
7.151 K, Glass | 2.969 ± 0.075
7.192 K, Crystal | 1.957 ± 0.057
7.546 K, Glass | 3.418 ± 0.081
7.578 K, Crystal | 2.288 ± 0.061
7.943 K, Glass | 3.889 ± 0.088
7.966 K, Crystal | 2.656 ± 0.068
8.343 K, Glass | 4.396 ± 0.096
8.356 K, Crystal | 3.052 ± 0.075
8.743 K, Glass | 4.921 ± 0.1
8.747 K, Crystal | 3.473 ± 0.081
9.141 K, Crystal | 3.927 ± 0.088
9.142 K, Glass | 5.507 ± 0.11
9.535 K, Crystal | 4.4 ± 0.094
9.542 K, Glass | 6.116 ± 0.12
9.931 K, Crystal | 4.904 ± 0.1
9.941 K, Glass | 6.777 ± 0.13
10 K, Crystal | 5 ± 0.1
10.43 K, Crystal | 5.581 ± 0.11
10.45 K, Glass | 7.669 ± 0.15
11.04 K, Crystal | 6.447 ± 0.12
11.06 K, Glass | 8.866 ± 0.16
11.65 K, Crystal | 7.367 ± 0.14
11.68 K, Glass | 9.609 ± 0.17
12.26 K, Crystal | 8.338 ± 0.15
12.33 K, Glass | 10.33 ± 0.18
12.88 K, Crystal | 9.361 ± 0.16
12.97 K, Glass | 11.38 ± 0.19
13.49 K, Crystal | 10.43 ± 0.18
13.59 K, Glass | 12.45 ± 0.2
14.11 K, Crystal | 11.52 ± 0.19
14.22 K, Glass | 13.57 ± 0.22
14.73 K, Crystal | 12.65 ± 0.2
14.85 K, Glass | 14.68 ± 0.23
15 K, Crystal | 13.15 ± 0.21
15.46 K, Crystal | 14.04 ± 0.22
15.59 K, Glass | 16.03 ± 0.24
16.3 K, Crystal | 15.65 ± 0.23
16.44 K, Glass | 17.61 ± 0.26
17.14 K, Crystal | 17.33 ± 0.25
17.29 K, Glass | 19.2 ± 0.27
17.98 K, Crystal | 19.01 ± 0.27
18.14 K, Glass | 20.83 ± 0.29
18.82 K, Crystal | 20.74 ± 0.28
18.99 K, Glass | 22.44 ± 0.3
19.66 K, Crystal | 22.48 ± 0.3
19.84 K, Glass | 24.05 ± 0.31
20 K, Crystal | 23.22 ± 0.3
20.8 K, Crystal | 24.92 ± 0.31
20.98 K, Glass | 26.32 ± 0.33
22.23 K, Crystal | 27.96 ± 0.33
22.44 K, Glass | 29.08 ± 0.34
23.67 K, Crystal | 30.95 ± 0.35
23.89 K, Glass | 31.88 ± 0.35
25 K, Crystal | 33.71 ± 0.36
25.11 K, Crystal | 33.93 ± 0.36
25.34 K, Glass | 34.61 ± 0.36
26.55 K, Crystal | 36.89 ± 0.37
26.79 K, Glass | 37.3 ± 0.37
28 K, Crystal | 39.85 ± 0.37
28.25 K, Glass | 39.98 ± 0.37
29.46 K, Crystal | 42.71 ± 0.37
29.71 K, Glass | 42.64 ± 0.37
30 K, Crystal | 43.79 ± 0.32
30.91 K, Crystal | 45.58 ± 0.33
31.17 K, Glass | 45.28 ± 0.33
32.37 K, Crystal | 48.31 ± 0.34
32.64 K, Glass | 47.85 ± 0.34
33.83 K, Crystal | 50.92 ± 0.36
34.1 K, Glass | 50.34 ± 0.35
35 K, Crystal | 52.97 ± 0.37
35.29 K, Crystal | 53.48 ± 0.37
35.56 K, Glass | 52.74 ± 0.37
36.75 K, Crystal | 55.93 ± 0.38
37.02 K, Glass | 55.06 ± 0.38
38.21 K, Crystal | 58.33 ± 0.39
38.48 K, Glass | 57.36 ± 0.39
39.67 K, Crystal | 60.64 ± 0.41
39.95 K, Glass | 59.57 ± 0.4
40 K, Crystal | 61.09 ± 0.41
41.38 K, Crystal | 63.18 ± 0.42
41.66 K, Glass | 62.09 ± 0.41
43.35 K, Crystal | 66.08 ± 0.43
43.62 K, Glass | 64.96 ± 0.43
45 K, Crystal | 68.34 ± 0.44
45.33 K, Crystal | 68.81 ± 0.44
45.59 K, Glass | 67.7 ± 0.44
47.31 K, Crystal | 71.45 ± 0.46
47.56 K, Glass | 70.47 ± 0.45
49.28 K, Crystal | 73.96 ± 0.47
49.53 K, Glass | 73.04 ± 0.47
50 K, Crystal | 74.81 ± 0.47
51.25 K, Crystal | 76.33 ± 0.48
51.5 K, Glass | 75.54 ± 0.48
53.22 K, Crystal | 78.7 ± 0.49
53.47 K, Glass | 77.99 ± 0.49
55.2 K, Crystal | 80.87 ± 0.5
55.43 K, Glass | 80.39 ± 0.5
57.18 K, Crystal | 82.96 ± 0.51
57.4 K, Glass | 82.69 ± 0.51
59.15 K, Crystal | 84.96 ± 0.53
59.37 K, Glass | 85.02 ± 0.53
60 K, Crystal | 85.89 ± 0.5
61.12 K, Crystal | 87.04 ± 0.53
61.34 K, Glass | 87.33 ± 0.54
63.1 K, Crystal | 89.03 ± 0.55
63.31 K, Glass | 89.56 ± 0.55
65.08 K, Crystal | 90.98 ± 0.55
65.29 K, Glass | 91.73 ± 0.56
67.06 K, Crystal | 92.73 ± 0.56
67.27 K, Glass | 93.78 ± 0.57
69.04 K, Crystal | 94.46 ± 0.57
69.25 K, Glass | 95.85 ± 0.58
70 K, Crystal | 95.2 ± 0.58
71.02 K, Crystal | 96.12 ± 0.58
71.23 K, Glass | 97.82 ± 0.59
73.01 K, Crystal | 97.71 ± 0.59
73.21 K, Glass | 99.78 ± 0.6
75 K, Crystal | 99.35 ± 0.6
75.2 K, Glass | 101.73 ± 0.61
76.99 K, Crystal | 101.08 ± 0.6
77.19 K, Glass | 103.84 ± 0.62
78.99 K, Crystal | 102.78 ± 0.61
79.19 K, Glass | 105.86 ± 0.63
79.88 K, Crystal | 103.13 ± 0.62
80 K, Crystal | 103.3 ± 0.58
80.98 K, Crystal | 104.4 ± 0.62
81.18 K, Glass | 107.71 ± 0.64
81.99 K, Glass | 108.36 ± 0.64
82.98 K, Crystal | 105.64 ± 0.63
83.34 K, Crystal | 105.95 ± 0.63
84.53 K, Glass | 110.36 ± 0.65
84.99 K, Crystal | 106.91 ± 0.64
85.34 K, Crystal | 107.22 ± 0.64
86.53 K, Glass | 112.03 ± 0.66
87.34 K, Crystal | 108.66 ± 0.64
88.52 K, Glass | 113.8 ± 0.67
89.34 K, Crystal | 110.09 ± 0.65
90 K, Crystal | 110.5 ± 0.67
90.52 K, Glass | 115.58 ± 0.66
91.34 K, Crystal | 111.54 ± 0.65
92.52 K, Glass | 117.14 ± 0.67
93.34 K, Crystal | 112.75 ± 0.65
94.51 K, Glass | 118.71 ± 0.67
95.34 K, Crystal | 114.08 ± 0.66
96.52 K, Glass | 120.45 ± 0.68
97.35 K, Crystal | 115.46 ± 0.66
98.52 K, Glass | 121.83 ± 0.69
99.35 K, Crystal | 116.72 ± 0.67
100 K, Crystal | 117.1 ± 0.67
100.53 K, Glass | 123.29 ± 0.69
101.36 K, Crystal | 118.12 ± 0.67
102.54 K, Glass | 125.09 ± 0.7
103.37 K, Crystal | 119.58 ± 0.68
104.55 K, Glass | 126.48 ± 0.71
105.39 K, Crystal | 120.44 ± 0.68
106.56 K, Glass | 127.9 ± 0.71
107.41 K, Crystal | 121.58 ± 0.69
108.57 K, Glass | 129.45 ± 0.72
109.43 K, Crystal | 122.78 ± 0.69
110 K, Crystal | 123.1 ± 0.67
110.59 K, Glass | 130.89 ± 0.72
111.44 K, Crystal | 123.99 ± 0.7
112.61 K, Glass | 132.26 ± 0.73
113.47 K, Crystal | 125.16 ± 0.7
114.64 K, Glass | 133.7 ± 0.73
115.5 K, Crystal | 126.62 ± 0.71
116.67 K, Glass | 135.05 ± 0.74
117.53 K, Crystal | 127.63 ± 0.7
118.69 K, Glass | 136.36 ± 0.75
119.57 K, Crystal | 128.57 ± 0.71
120 K, Crystal | 128.8 ± 0.75
120.72 K, Glass | 137.61 ± 0.75
121.6 K, Crystal | 129.71 ± 0.72
